One experiment deals with cocaine intake. The note with it: monkeys; cited from earlier work.
A further experiment concerns the target hD2R (Homo sapiens (Human), UniProt P14416). The experiment can be described thus: [3H]N-methylspiperone competition binding, D2R. As to conditions: HEK 293 membranes, read-out: Ki (nM) ± SEM D2R.
A further experiment addresses hD4R (Homo sapiens (Human), UniProt P21917). Put plainly: [3H]N-methylspiperone competition binding, D4R. As to conditions: for Ki: HEK 293 membranes, [3H]N-methylspiperone, read-out: Ki (nM) ± SEM D4R; for Selectivity D2R/D4R / Selectivity D3R/D4R: ratio of Ki values.
A further experiment concerns the target hD3R (Homo sapiens (Human), UniProt P35462). The note with it: read-out: Ki (nM) ± SEM D3R; HEK 293 membranes, [3H]N-methylspiperone.

The Ki is the dissociation constant of the complex between target and ligand, obtained from inhibition or displacement.

Sequence of hD4R (P21917 whole entry): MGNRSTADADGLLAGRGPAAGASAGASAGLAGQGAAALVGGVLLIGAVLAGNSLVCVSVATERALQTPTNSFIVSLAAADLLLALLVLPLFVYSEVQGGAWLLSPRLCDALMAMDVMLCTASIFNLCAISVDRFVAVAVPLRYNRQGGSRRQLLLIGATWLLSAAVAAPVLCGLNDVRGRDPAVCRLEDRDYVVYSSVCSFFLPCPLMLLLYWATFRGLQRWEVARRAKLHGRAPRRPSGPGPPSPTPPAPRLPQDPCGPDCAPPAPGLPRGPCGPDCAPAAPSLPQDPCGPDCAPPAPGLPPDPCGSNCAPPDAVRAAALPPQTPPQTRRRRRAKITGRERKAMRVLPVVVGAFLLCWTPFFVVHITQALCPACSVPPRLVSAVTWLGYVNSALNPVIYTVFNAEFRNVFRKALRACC
Sequence of hD2R (P14416 whole entry): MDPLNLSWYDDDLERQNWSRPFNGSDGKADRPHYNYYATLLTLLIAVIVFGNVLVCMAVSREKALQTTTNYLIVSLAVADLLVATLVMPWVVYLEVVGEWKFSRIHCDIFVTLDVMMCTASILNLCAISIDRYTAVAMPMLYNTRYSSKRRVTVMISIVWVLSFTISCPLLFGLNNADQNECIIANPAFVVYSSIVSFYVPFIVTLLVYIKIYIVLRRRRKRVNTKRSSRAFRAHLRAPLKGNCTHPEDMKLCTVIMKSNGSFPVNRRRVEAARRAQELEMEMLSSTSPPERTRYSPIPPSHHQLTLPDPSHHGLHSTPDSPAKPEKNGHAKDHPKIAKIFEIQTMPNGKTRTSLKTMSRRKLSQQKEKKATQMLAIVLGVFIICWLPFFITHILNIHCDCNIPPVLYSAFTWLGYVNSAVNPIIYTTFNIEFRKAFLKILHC
Sequence of hD3R (P35462 whole entry): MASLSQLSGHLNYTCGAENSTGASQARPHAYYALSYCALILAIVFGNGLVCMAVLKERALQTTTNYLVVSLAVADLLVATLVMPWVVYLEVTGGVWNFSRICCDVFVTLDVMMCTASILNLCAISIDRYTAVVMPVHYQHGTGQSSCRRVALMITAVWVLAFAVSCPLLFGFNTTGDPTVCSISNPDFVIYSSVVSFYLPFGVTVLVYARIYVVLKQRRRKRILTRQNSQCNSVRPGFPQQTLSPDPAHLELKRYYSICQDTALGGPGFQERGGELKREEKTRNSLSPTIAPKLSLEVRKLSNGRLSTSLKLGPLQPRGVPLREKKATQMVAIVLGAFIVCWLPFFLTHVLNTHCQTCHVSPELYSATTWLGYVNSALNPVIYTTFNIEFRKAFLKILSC

Turning to `c1ccc(-c2ncc(CN3CCN(c4ncccn4)CC3)[nH]2)cc1` [NGD-94-1], the cocaine intake entry in the experiment with cocaine intake is on record as “reduced cocaine intake”.
For Ro10-5824, the cocaine intake entry with cocaine intake is recorded as “reduced cocaine intake”.
With `CCc1ccnc(C2CCN(CCCc3nc4ccccc4s3)CC2)c1` [Compound 19], the results for the inhibitory constant (Ki) at hD2R, at hD4R and at hD3R were 12300 ± 7670 nM, 5.89 nM and 16700 ± 13300 nM, respectively. Further, the “Selectivity D2R/D4R” value at hD4R is on record as 2082. Besides, the “Selectivity D3R/D4R” value at hD4R is 2838.
For the molecule `Cc1cccc2nc(CCCN3CCC(c4ccccn4)CC3)sc12` [Compound 15], the inhibitory constant (Ki) on hD2R turned out to be 18000 ± 15200 nM. In addition, at hD4R, the “D4R binding selectivity vs. D2R and D3R (other D2-like receptors)” value is more than 15907 fold; the Ki turned out to be 1.13 ± 0.27 nM; the “Selectivity D2R/D4R” value worked out at 15907; the “Selectivity D3R/D4R” value is given as 32756. At hD3R, the inhibition constant (Ki) is 37100 ± 30300 nM.

(Values after patent US12122771B2, “Compounds useful for treatment of substance use disorder” (HIGH POINT UNIVERSITY, priority 2021, dated 2024).)
